Test system: NCI/ADR-RES complex spheroid viability
Assay: Anticancer human tumor NCI/ADR-RES cell line growth inhibition;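 also: spheroids exposed to compounds for 7 days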;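 as to viability, T/C: 100% = DMSO vehicle treated spheroids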
Conditions: for IC50: curve of first compound; for viability, T/C: stronger effect = lower value; active = viability on the fitted dose curve at most 10% of control; inactive = the rest
How it was run: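 Multicellular complex spheroids of tumor cells with human endothelial cells (HUVEC) and mesenchymal stem cells; the LSD1 inhibitor iadademstat was combined with standard-of-care or investigational agents. Top concentration at or near clinical Cmax, half-log dilutions; final DMSO ≤0.25%.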

O=C(C=Cc1cccc(S(=O)(=O)Nc2ccccc2)c1)NO + NC1CCC(NC2CC2c2ccccc2)CC1
78.3 nM: IC50 (second compound 1 µM)
active: viability, T/C (second compound 0.1 µM, first compound 0.949 µM) 9.06% | viability, T/C (second compound 0.1 µM, first compound 3 µM) 2.6% | viability, T/C (second compound 0.316 µM, first compound 0.949 µM) 7.56% | viability, T/C (second compound 0.316 µM, first compound 3 µM) 2.59% | viability, T/C (second compound 1 µM, first compound 0.949 µM) 10.1% | viability, T/C (second compound 1 µM, first compound 3 µM) 1.53% | viability, T/C (second compound 3.16 µM, first compound 0.949 µM) 8.22% | viability, T/C (second compound 3.16 µM, first compound 3 µM) 5.29% | viability, T/C (second compound 10 µM, first compound 0.949 µM) 6.54% | viability, T/C (second compound 10 µM, first compound 3 µM) 6.09%
82.2 nM: IC50 (second compound 0.1 µM)
29.8 nM: IC50 (second compound 10 µM)
76.7 nM: IC50 (second compound 3.16 µM)
78.1 nM: IC50 (second compound 0.316 µM)
inactive: viability, T/C (second compound 0.1 µM, first compound 0.00949 µM) 99.7% | viability, T/C (second compound 0.1 µM, first compound 0.03 µM) 85.7% | viability, T/C (second compound 0.1 µM, first compound 0.0949 µM) 39.4% | viability, T/C (second compound 0.1 µM, first compound 0.3 µM) 24.7% | viability, T/C (second compound 0.316 µM, first compound 0.00949 µM) 97.1% | viability, T/C (second compound 0.316 µM, first compound 0.03 µM) 85.2% | viability, T/C (second compound 0.316 µM, first compound 0.0949 µM) 40.7% | viability, T/C (second compound 0.316 µM, first compound 0.3 µM) 17.5% | viability, T/C (second compound 1 µM, first compound 0.00949 µM) 104% | viability, T/C (second compound 1 µM, first compound 0.03 µM) 82% | viability, T/C (second compound 1 µM, first compound 0.0949 µM) 41.5% | viability, T/C (second compound 1 µM, first compound 0.3 µM) 19.4% | viability, T/C (second compound 3.16 µM, first compound 0.00949 µM) 95.6% | viability, T/C (second compound 3.16 µM, first compound 0.03 µM) 78.7% | viability, T/C (second compound 3.16 µM, first compound 0.0949 µM) 42.9% | viability, T/C (second compound 3.16 µM, first compound 0.3 µM) 17.8% | viability, T/C (second compound 10 µM, first compound 0.00949 µM) 75.2% | viability, T/C (second compound 10 µM, first compound 0.03 µM) 47.6% | viability, T/C (second compound 10 µM, first compound 0.0949 µM) 34.4% | viability, T/C (second compound 10 µM, first compound 0.3 µM) 16.6%

Source: PubChem BioAssay AID1918955 (Molecular Pharmacology Branch, DTP, NCI, 2023)
